Data set [1] is described as follows: Apparent permeability across apical to basal side in human Caco-2 cells at pH 6.5/7.4 measured at 5 uM by LC-MS/MS analysis. The settings on record: Caco-2, pH 6.5. The class given is ADME, cell-based.
Data set [2] can be described thus: Permeability across apical to basal side in MDCK-MDR1 cells at pH 6.5/7.4 measured at 5 uM by LC-MS/MS analysis. The class given is ADME, cell-based, Canis lupus familiaris. The note with it: dog, MDCK-MDR1, pH 6.5.
Data set [3] deals with T1, Tryptophan 5-hydroxylase 1 (Homo sapiens) (UniProt P17752).
T1 sequence (whole entry): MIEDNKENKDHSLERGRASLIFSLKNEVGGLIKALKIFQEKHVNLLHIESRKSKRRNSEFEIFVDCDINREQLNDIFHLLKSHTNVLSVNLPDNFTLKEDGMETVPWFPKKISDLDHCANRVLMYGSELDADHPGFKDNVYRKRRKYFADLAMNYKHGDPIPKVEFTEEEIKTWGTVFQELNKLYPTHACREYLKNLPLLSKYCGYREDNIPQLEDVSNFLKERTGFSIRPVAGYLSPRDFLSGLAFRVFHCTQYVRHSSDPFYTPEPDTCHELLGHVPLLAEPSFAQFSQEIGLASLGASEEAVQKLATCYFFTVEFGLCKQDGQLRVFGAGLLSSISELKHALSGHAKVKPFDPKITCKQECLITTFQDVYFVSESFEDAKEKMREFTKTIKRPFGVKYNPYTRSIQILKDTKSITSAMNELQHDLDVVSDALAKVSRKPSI
Put plainly: Binding affinity to […] (unknown origin) assessed as dissociation rate constant by surface plasmon resonance analysis. Background: Surface plasmon resonance follows binding to a sensor surface in real time, without labels.

The target in data set [4] is T2, Tryptophan 5-hydroxylase 1 (Homo sapiens, UniProt P17752).
T2 sequence (P17752 whole entry): T1 sequence (whole entry)
Briefly: Inhibition of THP1 in human serotonergic BON cells assessed as reduced the intracellular serotonin levels incubated for 72 hrs. It counts as cell-based.

The next data set deals with Cytochrome P450 2C9 (Homo sapiens, UniProt P11712). Put plainly: Inhibition of CYP2C9 in human liver microsome using diclofenac as substrate measured upto 50 uM incubated for 10 mins followed by NADPH addition incubated for 10 mins by LC/MS/MS analysis. The class given is ADME. The note with it: microsomes, 20 min.
Sequence of Cytochrome P450 2C9 (P11712 whole entry): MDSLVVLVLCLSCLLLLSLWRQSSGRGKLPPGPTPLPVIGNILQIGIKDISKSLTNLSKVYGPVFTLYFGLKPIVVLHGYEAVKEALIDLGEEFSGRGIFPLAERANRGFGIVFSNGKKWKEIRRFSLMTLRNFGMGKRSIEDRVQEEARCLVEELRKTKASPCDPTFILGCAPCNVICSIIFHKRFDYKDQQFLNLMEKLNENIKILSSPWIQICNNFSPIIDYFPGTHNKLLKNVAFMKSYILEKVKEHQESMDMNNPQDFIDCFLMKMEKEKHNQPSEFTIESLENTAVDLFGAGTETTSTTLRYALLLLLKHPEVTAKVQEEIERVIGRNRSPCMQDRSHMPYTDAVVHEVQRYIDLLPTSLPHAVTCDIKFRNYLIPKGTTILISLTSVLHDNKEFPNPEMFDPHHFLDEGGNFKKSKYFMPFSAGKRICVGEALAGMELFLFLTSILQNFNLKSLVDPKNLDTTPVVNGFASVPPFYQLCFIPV
In the next data set the target is Cytochrome P450 2D6 (Homo sapiens, UniProt P10635). Briefly: Inhibition of CYP2D6 in human liver microsome using dextromethorphan as substrate measured upto 50 uM incubated for 10 mins followed by NADPH addition incubated for 10 mins by LC/MS/MS analysis. The note with it: microsomes, 20 min. It counts as ADME.
Sequence of Cytochrome P450 2D6 (P10635 whole entry): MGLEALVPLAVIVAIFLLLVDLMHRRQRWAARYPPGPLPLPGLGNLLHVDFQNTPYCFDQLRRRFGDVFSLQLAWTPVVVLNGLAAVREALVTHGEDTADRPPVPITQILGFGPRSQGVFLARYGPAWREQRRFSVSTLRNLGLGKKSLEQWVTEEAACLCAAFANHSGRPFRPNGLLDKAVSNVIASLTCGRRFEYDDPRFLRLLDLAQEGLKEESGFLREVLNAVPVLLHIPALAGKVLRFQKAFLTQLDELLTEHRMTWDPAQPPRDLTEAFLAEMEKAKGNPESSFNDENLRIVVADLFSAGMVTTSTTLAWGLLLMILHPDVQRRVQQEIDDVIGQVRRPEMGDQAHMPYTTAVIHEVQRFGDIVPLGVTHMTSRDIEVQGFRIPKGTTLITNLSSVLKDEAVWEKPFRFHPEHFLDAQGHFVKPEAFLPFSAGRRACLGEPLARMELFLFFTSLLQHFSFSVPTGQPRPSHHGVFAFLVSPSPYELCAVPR
Data set [5] in a line: Substrate activity at BCRP in human Caco-2 cells seeded in polyethylene membranes at 2 uM in presence or absence of E3S incubated for 2 hrs by LC-MS/MS analysis based substrate identification assay. The class given is ADME, cell-based. The settings on record: caco-2, 2 h.
The nature of data set [6]: Half life in CD-1 (ICR) mouse at 50 mg/kg, po measured upto 1440 mins by LC-MS/MS analysis. The class given is ADME, organism-based. The note with it: in vivo.
Data set [7] can be described thus: AUC (0 to last) in CD-1 (ICR) mouse at 50 mg/kg, po measured upto 1440 mins by LC-MS/MS analysis. It counts as ADME, organism-based. Set-up: time < 1440 min, dose 50 mg/kg, route po. The settings on record: in vivo.
Data set [8] in a line: AUMCExtra in CD-1 (ICR) mouse at 50 mg/kg, po measured upto 1440 mins by LC-MS/MS analysis. The class given is ADME, organism-based. The note with it: in vivo, 24 h.
The nature of data set [9]: Oral bioavailability in CD-1 (ICR) mouse at 50 mg/kg measured upto 1440 mins by LC-MS/MS analysis. The class given is ADME, organism-based. The settings on record: in vivo.
A short description of data set [10]: AUC (0 to infinitive) in Sprague-Dawley rat at 10 mg/kg, iv measured upto 1440 mins by LC-MS/MS analysis. The class given is ADME, organism-based. The settings on record: in vivo. Set-up: dose 10 mg/kg, time < 1440 min, route iv.
The nature of data set [11]: Cmax in Sprague-Dawley rat at 20 mg/kg, po measured upto 1440 mins by LC-MS/MS analysis. The class given is ADME, organism-based. Set-up: time < 1440 min, dose 20 mg/kg, route po. The settings on record: in vivo.
Data set [12] is described as follows: AUC (0 to last) in Sprague-Dawley rat at 20 mg/kg, po measured upto 1440 mins by LC-MS/MS analysis. The settings on record: in vivo. Set-up: time < 1440 min, dose 20 mg/kg, route po. The class given is ADME, organism-based.
A short description of data set [13]: MRT (0 to last) in Sprague-Dawley rat at 20 mg/kg, po measured upto 1440 mins by LC-MS/MS analysis. It counts as ADME, organism-based. The note with it: in vivo.
A short description of data set [14]: Oral bioavailability in Sprague-Dawley rat at 20 mg/kg measured upto 1440 mins by LC-MS/MS analysis. It counts as ADME, organism-based. The settings on record: in vivo.
The nature of data set [15]: MRT (0 to infinitive) in Sprague-Dawley rat at 50 mg/kg, po measured upto 1440 mins by LC-MS/MS analysis. The class given is ADME, organism-based. The note with it: in vivo.
Data set [16] in a line: Drug uptake in Sprague-Dawley rat lung at 50 mg/kg, po measured at 0.5 hrs by LC-MS/MS analysis. It counts as ADME, organism-based. The settings on record: read-out: Drug uptake.
The nature of data set [17]: Drug uptake in Sprague-Dawley rat brain at 50 mg/kg, po measured at 0.5 hrs by LC-MS/MS analysis. It counts as ADME, organism-based. The note with it: read-out: Drug uptake.
Data set [18] is described as follows: Reduction in serotonin level in C57BL/6N mouse duodenum at 1.5 mg/kg, po bid treated for 7 days by HPLC analysis relative to control. The note with it: 168 h, time 7 day. It counts as functional.
Data set [19] deals with Mus musculus. Put plainly: Effect on C57BL/6N mouse assessed as brain serotonin turnover measuring 5-HIAA/5-HT ratio at 1.5 to 50 mg/kg, po bid treated for 6 to 7 days. It counts as functional, organism-based. The settings on record: dose 1.5-50 mg/kg, time 6-7 day.
Data set [20] relates to Mus musculus. Put plainly: Effect on time spent in central zone of C57BL/6N mouse at 20 mg/kg, po treated for 14 days by locomotor activity test. The settings on record: time 14.0 day. The class given is functional, organism-based.
In a further data set the test system is MC-38. Put plainly: Antitumor activity against mouse MC-38 cells subcutaneously transplanted in C57BL/6N mouse assessed as reduction in absolute tumor volume at 50 mg/kg, po bid measured on day 20 relative to control. The note with it: MC-38, 480 h, route sc, time 20 day. It counts as functional.
The nature of data set [21]: Tlast in Sprague-Dawley rat at 20 mg/kg, po measured upto 1440 mins by LC-MS/MS analysis. It counts as ADME, organism-based. The note with it: in vivo, 24 h.

Active and inactive are the calls of the source. The rule behind the calls is not given here.

For the compound `CCn1c(=O)[nH]c(=O)c2c1nc(Cc1cn3cc(C)sc3n1)n2CC1COC1`, the Papp A→B (commonly how fast a substance crosses the layer from the apical side) at 5 µM in [1] is 0.14 ×10⁻⁶ cm/s; in [2], below 0.54 ×10⁻⁶ cm/s. In [3], the Kdiss was 0.007 s⁻¹. Besides, the IC50 (as a rule, the midpoint of a concentration-inhibition curve) in data set [4] is 0.952 µM. Further, the “inhibition (INH)” value against Cytochrome P450 2C9 and against Cytochrome P450 2D6 was “Not Active” in each case. The Activity result in data set [5] is listed as “Not Active”. The half-life (usually how long it takes for the measured level to halve) in data set [6] was 1.76 h. The AUC(0-t) (commonly the area under the concentration-time curve up to a stated or last time point) at 24 h was found to be 8540 ng·h/mL in [7] and 3300 ng·h/mL in [12]. This compound came in with an AUMC in [8] of 4.85%. The bioavailability (commonly dose-corrected exposure relative to a reference, in per cent) in [9] came out at 41.3%; in [14], 33%. In data set [10], the AUC(0-inf) (commonly the area under the concentration-time curve extrapolated to infinity) worked out at 5030 ng·h/mL. Besides, the Cmax (in general, the maximum level reached in the sampled fluid or tissue) in [11] came to 2090 ng/mL. Besides, the MRT last (in general, the average time that molecules of a dose stay in the body) at 24 h in data set [13] is 2.91 h. Further, in [15], the MRT inf – broadly, the average time that molecules of a dose stay in the body – was found to be 2.75 h. Moreover, the concentration at 0.5 h in data set [16] turned out to be 3160 ng/g; in [17] it was 43 ng/g. The inhibition in vivo (as a rule, the drop in the measured response relative to a control, in per cent) at 1.5 mg/kg in [18] worked out at 40%. The result with Mus musculus [19] and in the data set with Mus musculus [20] was inactive. Besides, the inhibition in vivo at 50 mg/kg in the data set with MC-38 stood at 35%. The compound further displayed a Tlast in data set [21] of 24 h.

Source of the values: ChEMBL document CHEMBL5370659 (J Med Chem, 2023).
